# Experimental data as given in ChEMBL document CHEMBL3885881, “DrugMatrix”.
# How the values were obtained:
# [1] = species on record: Rattus norvegicus; assay: DrugMatrix - Regimen: Daily Repeat; assay type: toxicity, organism-based, Sprague-Dawley; design: regimen Daily Repeat, gender Male, age 6-8 weeks; details: in vivo, po, 330 mg/kg, […], route oral GAVAGE, dose level High, time 14 day, vehicle .5 % CMC
# [2] = species on record: Rattus norvegicus; assay type: toxicity, organism-based, Sprague-Dawley; details: in vivo, po, 330 mg/kg, 24 h, route oral GAVAGE, dose level High, time 1 day, vehicle .5 % CMC
# Description: DrugMatrix - Regimen: Single
sequence,measurement,setting,value
FERROCENE,ABSOLUTE BASOPHIL,[1]; tissue Blood,0 CELLS/uL
same,ABSOLUTE EOSINOPHIL,[1]; tissue Blood,150.8 CELLS/uL
same,ABSOLUTE LYMPHOCYTE,[1]; tissue Blood,17564.8 CELLS/uL
same,ABSOLUTE MONOCYTE,[1]; tissue Blood,546.8 CELLS/uL
same,ABSOLUTE SEGMENTED NEUTROPHIL,[1]; tissue Blood,2837.6 CELLS/uL
same,BASOPHIL,[1]; tissue Blood,0%
same,EOSINOPHIL,[1]; tissue Blood,0.8%
same,ERYTHROCYTE COUNT,[1]; tissue Blood,5.16 x10E6/uL
same,HEMATOCRIT,[1]; tissue Blood,32.2%
same,HEMOGLOBIN,[1]; tissue Blood,11.86 G/DL
same,LEUKOCYTE COUNT,[1]; tissue Blood,21.1 x10E3/uL
same,LYMPHOCYTE,[1]; tissue Blood,83.2%
same,MEAN CORPUSCULAR HEMOGLOBIN,[1]; tissue Blood,23.1 pg
same,MEAN CORPUSCULAR HEMOGLOBIN CONCENTRATION,[1]; tissue Blood,36.82 G/DL
same,MONOCYTE,[1]; tissue Blood,2.6%
same,NEUTROPHIL,[1]; tissue Blood,13.4%
same,NUCLEATED RED BLOOD CELLS,[1]; tissue Blood,0 /100WBC
same,PLATELET COUNT,[1]; tissue Blood,1348 x10E3/uL
same,ALANINE AMINOTRANSFERASE,[1]; tissue Plasma,39.6 u/L
same,ALBUMIN,[1]; tissue Plasma,4.42 G/DL
same,ALKALINE PHOSPHATASE,[1]; tissue Plasma,217.6 u/L
same,ASPARTATE AMINOTRANSFERASE,[1]; tissue Plasma,59.8 u/L
same,BLOOD UREA NITROGEN,[1]; tissue Plasma,15.2 mg/dL
same,CARBON DIOXIDE,[1]; tissue Plasma,25 mmol/L
same,CHOLESTEROL,[1]; tissue Plasma,87.2 mg/dL
same,CREATININE,[1]; tissue Plasma,0.19 mg/dL
same,GLUCOSE,[1]; tissue Plasma,182.6 mg/dL
same,LIPASE,[1]; tissue Plasma,10.2 u/L
same,PHOSPHORUS,[1]; tissue Plasma,12.74 mg/dL
same,TOTAL BILIRUBIN,[1]; tissue Plasma,0.22 mg/dL
same,TOTAL PROTEIN,[1]; tissue Plasma,6.84 G/DL
same,URIC ACID,[1]; tissue Plasma,2.68 mg/dL
same,ABSOLUTE EOSINOPHIL,[2]; tissue Blood,50.33 CELLS/uL
same,ABSOLUTE LYMPHOCYTE,[2]; tissue Blood,10757 CELLS/uL
same,ABSOLUTE MONOCYTE,[2]; tissue Blood,373 CELLS/uL
same,ABSOLUTE SEGMENTED NEUTROPHIL,[2]; tissue Blood,1253 CELLS/uL
same,BASOPHIL,[2]; tissue Blood,0%
same,EOSINOPHIL,[2]; tissue Blood,0.33%
same,ERYTHROCYTE COUNT,[2]; tissue Blood,5.36 x10E6/uL
same,HEMATOCRIT,[2]; tissue Blood,33.23%
same,HEMOGLOBIN,[2]; tissue Blood,12.53 G/DL
same,LEUKOCYTE COUNT,[2]; tissue Blood,12.43 x10E3/uL
same,LYMPHOCYTE,[2]; tissue Blood,87%
same,MEAN CORPUSCULAR HEMOGLOBIN,[2]; tissue Blood,23.47 pg
same,MEAN CORPUSCULAR HEMOGLOBIN CONCENTRATION,[2]; tissue Blood,37.7 G/DL
same,MONOCYTE,[2]; tissue Blood,3%
same,NEUTROPHIL,[2]; tissue Blood,9.67%
same,NUCLEATED RED BLOOD CELLS,[2]; tissue Blood,0 /100WBC
same,PLATELET COUNT,[2]; tissue Blood,1189.67 x10E3/uL
same,ALANINE AMINOTRANSFERASE,[2]; tissue Plasma,42.67 u/L
same,ALBUMIN,[2]; tissue Plasma,4.5 G/DL
same,ALKALINE PHOSPHATASE,[2]; tissue Plasma,371.33 u/L
same,ASPARTATE AMINOTRANSFERASE,[2]; tissue Plasma,77 u/L
same,BLOOD UREA NITROGEN,[2]; tissue Plasma,11.67 mg/dL
same,CARBON DIOXIDE,[2]; tissue Plasma,26.33 mmol/L
same,CREATININE,[2]; tissue Plasma,0.18 mg/dL
same,LACTATE DEHYDROGENASE,[2]; tissue Plasma,127.67 u/L
same,LIPASE,[2]; tissue Plasma,8.33 u/L
same,PHOSPHORUS,[2]; tissue Plasma,12.47 mg/dL
same,POTASSIUM,[2]; tissue Plasma,6.09 MEQ/L
same,TOTAL BILIRUBIN,[2]; tissue Plasma,0.13 mg/dL
same,TOTAL PROTEIN,[2]; tissue Plasma,6.33 G/DL
same,URIC ACID,[2]; tissue Plasma,1.03 mg/dL
